Results reported in US20080009025A1, “PROTEIN KINASE REGULATION” (priority 1999, published 2008).
Where a SMILES comes first, the peptide text is derived from it.

How the values were obtained:
PDK1 = molecular target: T1, PDK1 (Homo sapiens, UniProt O15530); assay: Surface plasmon resonance binding of His-PDK1 to immobilised p70 S6K; conditions: 10 μM peptide
T1 construct: Full length PDK1 (residues 1-556); made in house; host or cells: 293 cells
T1 sequence (O15530 52-556): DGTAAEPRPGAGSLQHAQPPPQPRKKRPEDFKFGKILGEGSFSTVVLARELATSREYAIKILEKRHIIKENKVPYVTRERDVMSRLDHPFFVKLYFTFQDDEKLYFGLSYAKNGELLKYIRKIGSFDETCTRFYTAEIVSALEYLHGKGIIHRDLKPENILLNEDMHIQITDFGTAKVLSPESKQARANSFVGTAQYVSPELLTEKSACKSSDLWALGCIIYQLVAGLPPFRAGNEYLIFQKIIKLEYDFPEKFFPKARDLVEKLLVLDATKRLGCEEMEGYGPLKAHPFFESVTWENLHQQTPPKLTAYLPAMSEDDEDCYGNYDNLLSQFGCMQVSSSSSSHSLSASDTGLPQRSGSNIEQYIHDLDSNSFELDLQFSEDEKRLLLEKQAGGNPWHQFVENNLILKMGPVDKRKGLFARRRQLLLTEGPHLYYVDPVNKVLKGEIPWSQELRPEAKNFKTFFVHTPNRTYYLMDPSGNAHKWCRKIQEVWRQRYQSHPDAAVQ
Procedure: FIG. 6. Quantitative analysis of the binding of PDK1 to p70 S6K. Surface Plasmon Resonance measurements were carried out on a BiaCore instrument as described in the Methods. His-PDK1 was injected at the indicated concentrations over (A) 2000 RUs of p70 S6K-T2 (closed squares), or 412Ep70 S6K-T2 (closed circles) which was immobolised by amine coupling to a CM5 Sensorchip. Experiments carried out in the presence of either 10 μM wild type PIF peptide (hexagons) or 10 μM D978A mutant PIF peptide (triangles) are indicated. The responses at steady state binding were recorded. All data are single determinations from a representative experiment that was repeated at least 3 times with similar results.
Surface plasmon resonance measurements of PDK1 binding to p70 S6 kinase. p70 S6K-T2 and T412Ep70S6K-T2 mutant were amine coupled to a CM5 sensor chip (BIAcore AB) according to the manufacturer's instructions. The indicated concentrations of His-PDK1 was injected over the chip at a flow rate of 30 μl/min and the steady-state binding determined, in the presence or absence of PIF peptide. The apparent equilibrium dissociation constant (Kd) for the binding of His-PDK1 to p70 S6 kinase was determined by fitting the increase in steady-state binding upon increased PDK1 concentration to a rectangular hyperbola using SigmaPlot 4 (SPSS Inc). […]

p70 S6K = assay: IGF1-induced activation and Thr412 phosphorylation of HA-p70 S6K in co-transfected 293 cells; type: cell-based, human
Procedure: FIG. 3. PIF inhibits p70 S6K activation and phosphorylation at Thr252 and Thr412. 293 cells were co-transfected with constructs expressing the wild type (wt) full length HA-p70 S6K (A) or the full length HA-T412E p70 S6K (B) with either GST-PIF, GST-F977A-PIF, or GST. 24 h post transfection the cells were serum starved for 16 h and them stimulated for 40 min with 100 nM IGF 1. The cells were lysed and HA-p70 S6K was immunoprecipitated and assayed as described in methods. Protein from each lysate (10 μg for the HA blots or 20 μg for the T412-P blot) was electrophoresed on a 10% SDS/polyacrylamide gel and immunoblotted using HA-antibody or the T412-P antibody. The T412-P antibody was incubated with either the synthetic peptide (10 μg/ml) corresponding to residues 401 to 418 of p70 S6K phosphorylated at Thr412 (phosph-412E peptide), or the unphosphorylated peptide (de-phospho-Thr412 peptide). The T412-P antibody consistently recognises a protein termed “non specific band” in cell lysates which migrate at (75 kDa) derived from non transfected and transfected cells. […] It is not co-immunoprecipitated with HA-p70 S6K (date not shown). The HA-p70 S6K activities shown are the average ±SEM for a single experiment carried out in triplicate. Similar results were obtained in 8 separate experiments (A) and 2 experiments (B). The immunoblotting was carried out in 3 separate experiments with similar results.
Transient Transfection Experiments. The DNA constructs encoding for the wild type and mutant forms of HA-p70 S6K in the pMT2 vector used in this study have been described previously. […] The constructs used to express GST-PIF and the mutant GST-F977A-PIF [22] are in the pEBG2T vector. The empty pEBG2T vector was used to express GST protein in control experiments. DNA constructs used in this study were purified from bacteria using the Qiagen plasmid Mega kit according to the manufacturer's protocol.
293 cells cultured on 10 cm diameter dishes in Dulbecco's Modified Eagle's Medium containing 10% (by vol) foetal bovine serum, were transfected with 2 μg of DNA construct encoding either wild type or mutant HA-p70 S6K or HA-PKBα, and 10 μg of DNA construct encoding either GST-PIF, GST-F977A-PIF, GST, Myc-PDK1, kinase-dead Myc-PDK1, or the empty pCMV5 vector using a modified calcium phosphate method. 24 h post transfection the cells were deprived of serum for 16 h, and exposed to IGF1 (100 nM) for the time indicated. The cells were lysed in 1 ml of lysis buffer (50 mM Tris/HCl pH 7.5, 1 mM EDTA, 1 mM EGTA, 1% (by vol) Triton X-100, 1 mM sodium orthovanadate, 10 mM sodium β-glycerophosphate, 50 mM NaF, 5 mM sodium pyrophosphate, 1 μM microcystin-LR, 0.27 M sucrose and protease cocktail tablets), cleared by centrifugation, and 50 μg of protein was subjected to immunoprecipitation with anti HA monoclonal antibody. The protein concentrations of the lysates were determined by the Bradford method.
Kinase assays. The HA-p70 S6K or HA-PKBα immunoprecipitates were washed and assayed for kinase activity using the peptide Crosstide (GRPRTSSFAEG) as described previously for PKBα [28]. One unit of activity, U, was that amount which catalysed the phosphorylation of 1 nmol of substrate in one minute.
Immunoblotting for dephosphorylated and Thr412-phosphorylated p70 S6 kinase. Cell lysates were made 1% SDS and the indicated amounts of protein were subjected to SDS/Polyacrylamide gel electrophoresis, subsequently transferred to nitrocellulose and immunoblotted using the indicated monoclonal antibody or the T412-P phospho-specific antibody (0.4 μg/ml) in 50 mM Tris/HCl pH7.5, 0.15M NaCl, 0.5% (by vol) Tween and 10% (by mass) skimmed milk. Detection was performed using the enhanced chemiluminescence reagent (Amersham Pharmacia Biotech).

CC[C@H](C)[C@H](NC(=O)[C@H](Cc1ccc(O)cc1)NC(=O)[C@H](CC(=O)O)NC(=O)[C@H](Cc1ccccc1)NC(=O)[C@H](CC(=O)O)NC(=O)[C@H](CCCNC(=N)N)NC(=O)[C@H](Cc1ccccc1)NC(=O)[C@H](CCSC)NC(=O)[C@H](CCC(=O)O)NC(=O)[C@H](CCC(N)=O)NC(=O)[C@H](CCC(=O)O)NC(=O)[C@H](CCC(=O)O)NC(=O)[C@H](CCC(=O)O)NC(=O)[C@H](CO)NC(=O)[C@H](CC(C)C)NC(=O)[C@@H](NC(=O)[C@H](CCCNC(=N)N)NC(=O)[C@@H]1CCCN1C(=O)[C@H](CCC(=O)O)NC(=O)[C@@H](N)CCCNC(=N)N)[C@@H](C)CC)C(=O)N[C@@H](C)C(=O)N[C@@H](CC(=O)O)C(=O)N[C@@H](Cc1c[nH]c2ccccc12)C(=O)N[C@@H](CS)C(=O)O [PIFtide] (H-REPRILSEEEQEMFRDFDYIADWC-OH; N-terminus and C-terminus assumed)
effect on the interaction between PDK1 and 412E-p70 S6K-T2 (PDK1): abolished

GST-PIF: glutathione S-transferase fused to the last 77 residues of PRK2 (PIF)
basal HA-p70 S6K activity (p70 S6K; 293 cells co-expressing HA-p70 S6K, unstimulated): virtually undetectable | HA-p70 S6K activity after IGF1 stimulation (p70 S6K; 293 cells, 100 nM IGF1 40 min): only a very slight increase | IGF1-induced phosphorylation of HA-p70 S6K at Thr412 (p70 S6K; 293 cells, T412-P antibody): failed to induce | IGF1 induced activation and phosphorylation at Thr412 of the p70 S6K-T2 mutant (p70 S6K; 293 cells, data not shown): abolished
